According to patent publication US20110269825A1, “Modified Thromboxane A2 Receptor Promoter Sequence” (priority 2008, published 2011):
Several values for one entry are separate records, joined by “and”; a condition that tells them apart may be missing. Identical values can stand only once.

Assays:
[1] = tested on: Prm1-directed luciferase expression; assay: Effect of PMA, PD98059 or Vitamin D3 on Prm1-directed luciferase expression in HEL cells; format: cell-based, human
Procedure: HEL and EA.hy 926 cells were co-transfected with the various pGL3Basic-recombinant plasmids (2 mg), encoding firefly luciferase, along with pRL-TK (200 ng), encoding renilla luciferase, using DMRIE-C® transfection reagent. HEK293, WI-38, and 1° hAoSMCs were co-transfected with the pGL3Basic-recombinant plasmids (2 mg), along with pRL-TK (200 ng), using Effectene transfection reagent. In all cases, cells co-transfected with pRL-TK (200 ng) in the presence of either the pGL3Control vector (firefly luciferase gene under the control of the SV40 promoter; 2 mg) or the promoter-less pGL3Basic empty vector (2 mg), which served as positive and negative controls, respectively. […] Relative firefly to renilla luciferase activity (arbitrary units) was calculated as a ratio and was expressed in relative luciferase units (RLU). To investigate the effect of over-expression of exon 5 (+ or −) or KTS (+ or −) isoforms of WT1 on Prm1-directed gene expression, HEL cells were co-transfected with either pGL3b:Prm1 or pGL3b:Prm1D (1.5 μg) plus 200 ng of pRL-TK along with either pcDNA3:WT1 (+/+), pcDNA3:WT1 (+/−), pcDNA3:WT1 (−/+), pcDNA3:WT1 (−/−) (0.5 μg), or as a control, pcDNA3 (0.5 μg). […] The plasmid pCMV5-NAB1, containing the entire coding sequence for NAB1, was generously donated by Dr. Gerald Thiel, University of Saarland Medical Center, Homburg, Germany, and has been described previously (Thiel et al., 2000). To investigate the effect of over-expression of NAB1 on the PMA-mediated induction of Prm1-directed gene expression, HEL cells were transiently co-transfected with pGL3b:Prm1 (2 μg) plus pRL-TK (200 ng) along with either pCMV5 (control) or pCMV:NAB1 (1 μg).

WT1 = assay: Confocal microscopy of WT1 localization in PMA-treated HEL cells; format: cell-based, human; conditions: PMA 100 nM, at 5 h and 8 h
Procedure: HEL 92.1.7 cells were seeded at ˜1×10^5 cells/ml in 2 ml normal growth media (RPMI 1640, 10% FBS) in 6-well plates containing Poly-L-lysine coated coverslips. Cells were grown at 37° C. for 24 h prior to incubating cells with 100 nM PMA for 0, 1, 5, 8, 16 and 24 h. Thereafter, cells were fixed in 3.4% paraformaldehyde and permeabilized with 0.2% Triton X-100 for 10 min on ice, after which cells were immunolabelled with anti-WT1 (1:1000 of 2 μg/μl stock) and AlexaFluor488 conjugated anti-rabbit, followed by counterstaining with DAPI (1 μg/ml in H2O). Images were obtained using Carl Zeiss Lazer Scanning System LSM510 and Zeiss LSM Imaging software for acquiring multi-channel images with filters appropriate for enhanced DAPI & AlexaFluor488.

CCCCCCCCCCCCCC(=O)O[C@@H]1[C@@H](C)[C@@]2(O)[C@@H](C=C(CO)C[C@]3(O)C(=O)C(C)=C[C@@H]23)[C@@H]2C(C)(C)[C@]12OC(C)=O [PMA, phorbol 12-myristate 13-acetate]
Time of incubation to significantly increased Prm1-directed luciferase activity ([1]; PMA 100 nM, 0-48 h): ≤ 4 h | Increase in Prm1-directed luciferase expression ([1]; PMA 100 nM, 16 h, vs vehicle): 4 fold and 4.3 fold | Effect on luciferase expression directed by the Prm1K sub-fragment ([1]; PMA alone 100 nM, 16 h): neither PMA alone (p=0.4721) nor PMA plus PD98059 (p=0.2693) had any significant effect | Intracellular localization of WT1 (WT1): redistribution of WT1 to the cytosolic fraction
